Experiments:
U87 glioblastoma cells = assay: Confocal analysis of cellular distribution of EYFP-hDAAO variants in transiently transfected U87 cells; type: cell-based, human
Protocol: Human U87 glioblastoma cells (ATCC) were cultured in DMEM supplemented with 10% fetal bovine serum, 1 mM sodium pyruvate, 2 mM L-glutamine, 1% non-essential amino acids, 1% penicillin/streptomycin, and 1% amphotericin B (Euroclone), at 37°C in 5% CO2. The cells were transfected either with the pEYFP-hDAAO-C3 construct (for the expression of the wild-type enzyme downstream of the enhanced yellow fluorescent protein, EYFP) (Sacchi et al., [2008], [2011]), the pEYFP-hDAAO(R120L)-C3, or the pEYFP-hDAAO(R120E)-C3 expression vectors. The latter constructs were obtained by mutagenesis using the QuikChange Lightning Site-Directed Mutagenesis Kit (Agilent), and the following primers: 5′-[…]-3′ and 5′-[…]-3′ for the R120E substitution, and 5-[…]-3′ and 5′-[…]-3′ for the R120L substitution.
For transient transfection, 2 ×10^4 cells were seeded into eight-well chamber slides (Sarstedt). At 24 h after seeding, cells were transfected with 2 μg plasmid DNA using a 4:1 ratio of FuGENE transfection reagent (Promega) to DNA. Then, 12.5 μL of transfection mix was added to 500 μL medium per well. Protein expression levels were monitored by using a fluorescence microscope (Olympus IX51) equipped with a FITC filter and by Western blot analysis using an anti-hDAAO antibody (Davids Biotechnologie) (Sacchi et al., [2008], [2011]).
At 24, 48, and 72 h after transfection, cells were washed twice with PBS and fixed with ice-cold 4% p-formaldehyde and 4% sucrose for 10 min at room temperature. After fixation, cells were washed twice with PBS and blocked by incubation in PBS supplemented with 0.2% Triton X-100 and 4% horse serum for 30 min at room temperature. Peroxisomes were stained using rabbit polyclonal anti-PMP70 (peroxisomal membrane protein 70, Sigma), diluted 1:500 in PBS, 0.1% Triton X-100, and 4% horse serum overnight at 4°C; they were then washed twice in PBS and 1% horse serum and incubated for 1 h at room temperature (light protected) with goat anti-rabbit Dylight 550 secondary antibodies (Abcam) diluted 1:400 in PBS, 0.1% Triton X-100, and 1.5% horse serum. Cells were then extensively washed in PBS and nuclei were stained with DRAQ5™ (Thermo Scientific) and diluted 1:500 in PBS for 10 min at room temperature in the dark. Cells were washed three times with PBS and stored in PBS at 4°C until imaging.
Immunostained cells were imaged using an inverted laser scanning confocal microscope (TCS SP5, Leica Microsystems), equipped with a 63.0 ×1.25 NA plan apochromatic oil immersion objective. Confocal image stacks were acquired using the Leica TCS software with a sequential mode to avoid interference between each channel and without saturating any pixel. Cells in 10–15 non-magnified optical fields were analyzed for each condition (i.e., different EYFP-hDAAO expression constructs at different times after transfection). The fluorescence signal corresponding to the overexpressed EYFP-hDAAO variants was monitored by excitation at 514 nm (yellow channel); the peroxisomal and nuclear cellular compartments were imaged by excitation at 546 nm (red channel) and 647 nm (blue channel), respectively.
U87 glioblastoma cells were transiently transfected with a pEYFP-hDAAO-C3 plasmid encoding for EYFP-hDAAO chimeric proteins harboring R, E, or L at position 120 of the flavoenzyme. […] A similar amount of transfected cells (expressing EYFP-hDAAO protein) was obtained for all three constructs (Table 4). The percentage of cells showing a cytosolic, peroxisomal, and nuclear localization of the flavoenzyme was determined by comparing the yellow fluorescence signal of EYFP-hDAAO variants with those of the markers PMP-70 (for peroxisomes) and DRAQ5™ dye (for nuclei, Figure 5). The amount of cytosolic wild-type EYFP-hDAAO decreased with time after transfection (28% of the signal is cytosolic at 72 h vs. 94% at 24 h), as did the amount of nuclear signal (Table 4 and Figure 6). […]

[1] = parameters: method as in Molla et al. (2006) and Caldinelli et al. (2009); settings: 28 mM D-alanine, pH 8.5, 25°C; ref Molla et al. (2006) and Caldinelli et al. (2009); cited from earlier work

Wild-type: recombinant wild-type human D-amino acid oxidase (His-tagged from E. coli; EYFP-tagged in U87 cells)
hDAAO cellular distribution: A, large cytosolic aggregates detected (U87 glioblastoma cells; 24 h after transfection): 18.7 % of transfected cells
hDAAO cellular distribution: C, cytosol (U87 glioblastoma cells; 24 h after transfection): 69.4 % of transfected cells
hDAAO cellular distribution: C/P, mixed, cytosol and peroxisomes (U87 glioblastoma cells; 24 h after transfection): 13.4 % of transfected cells
hDAAO cellular distribution: N, nucleus (U87 glioblastoma cells; 24 h after transfection): 14.4 % of transfected cells
hDAAO cellular distribution: P, peroxisomes (U87 glioblastoma cells; 24 h after transfection): 17.2 % of transfected cells
hDAAO cellular distribution: A, large cytosolic aggregates detected (U87 glioblastoma cells; 48 h after transfection): 15.4 % of transfected cells
hDAAO cellular distribution: C, cytosol (U87 glioblastoma cells; 48 h after transfection): 21.2 % of transfected cells
hDAAO cellular distribution: C/P, mixed, cytosol and peroxisomes (U87 glioblastoma cells; 48 h after transfection): 26.9 % of transfected cells
hDAAO cellular distribution: N, nucleus (U87 glioblastoma cells; 48 h after transfection): 9.6 % of transfected cells
hDAAO cellular distribution: P, peroxisomes (U87 glioblastoma cells; 48 h after transfection): 51.9 % of transfected cells
cytosolic signal (U87 glioblastoma cells; 72 h after transfection): 28%
hDAAO cellular distribution: A, large cytosolic aggregates detected (U87 glioblastoma cells; 72 h after transfection): 5.6 % of transfected cells
hDAAO cellular distribution: C, cytosol (U87 glioblastoma cells; 72 h after transfection): 10.4 % of transfected cells
hDAAO cellular distribution: C/P, mixed, cytosol and peroxisomes (U87 glioblastoma cells; 72 h after transfection): 18.4 % of transfected cells
hDAAO cellular distribution: N, nucleus (U87 glioblastoma cells; 72 h after transfection): 4.0 % of transfected cells
hDAAO cellular distribution: P, peroxisomes (U87 glioblastoma cells; 72 h after transfection): 71.2 % of transfected cells
Specific activity [1]: 12.0 U/mg protein

From paper PMC6862323, “Substitution of Arginine 120 in Human D-Amino Acid Oxidase Favors FAD-Binding and Nuclear Mistargeting” (Frontiers in Molecular Biosciences, 2019)
